Columns and labels:
Assay type in all cases: in vitro ADME
Conditions in all cases: 1 and 10 µmol L^−1
UGT2B15 = target: T1, UGT2B15 (Homo sapiens, UniProt P54855); assay: M1 formation from molidustat by recombinant UGT2B15
T1 sequence (P54855 24-530): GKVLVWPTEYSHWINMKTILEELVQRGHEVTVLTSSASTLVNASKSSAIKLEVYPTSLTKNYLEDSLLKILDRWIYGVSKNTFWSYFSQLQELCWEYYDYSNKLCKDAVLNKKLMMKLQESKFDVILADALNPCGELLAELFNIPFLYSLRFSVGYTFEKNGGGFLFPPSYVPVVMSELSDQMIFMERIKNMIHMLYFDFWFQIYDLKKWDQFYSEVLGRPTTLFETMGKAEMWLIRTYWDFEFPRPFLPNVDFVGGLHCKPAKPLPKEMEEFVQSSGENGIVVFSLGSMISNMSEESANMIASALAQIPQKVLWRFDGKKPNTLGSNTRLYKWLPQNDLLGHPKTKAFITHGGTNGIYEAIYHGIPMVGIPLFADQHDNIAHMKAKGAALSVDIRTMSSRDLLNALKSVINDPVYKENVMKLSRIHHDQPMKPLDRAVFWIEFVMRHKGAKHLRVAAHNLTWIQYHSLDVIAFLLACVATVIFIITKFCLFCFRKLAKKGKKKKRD

UGT2B17 = target: T2, UGT2B17 (Homo sapiens, UniProt O75795); assay: M1 formation from molidustat by recombinant UGT2B17
T2 sequence (O75795 24-530): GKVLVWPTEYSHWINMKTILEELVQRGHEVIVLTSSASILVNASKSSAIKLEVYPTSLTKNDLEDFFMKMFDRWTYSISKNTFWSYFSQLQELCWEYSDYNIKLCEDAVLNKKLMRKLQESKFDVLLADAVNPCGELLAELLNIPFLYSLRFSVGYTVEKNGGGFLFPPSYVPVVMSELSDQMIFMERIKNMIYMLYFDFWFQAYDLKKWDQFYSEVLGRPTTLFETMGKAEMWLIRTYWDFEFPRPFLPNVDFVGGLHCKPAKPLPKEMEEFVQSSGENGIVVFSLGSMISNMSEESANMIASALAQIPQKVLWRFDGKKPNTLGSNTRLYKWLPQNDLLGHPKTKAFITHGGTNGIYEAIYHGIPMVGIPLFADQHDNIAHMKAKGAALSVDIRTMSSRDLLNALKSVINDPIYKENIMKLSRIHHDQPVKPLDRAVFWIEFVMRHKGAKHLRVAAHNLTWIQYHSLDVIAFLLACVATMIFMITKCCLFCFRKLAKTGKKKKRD

UGT1A10 = target: T3, UGT1A10 (Homo sapiens, UniProt Q9HAW8); assay: M1 formation from molidustat by recombinant UGT1A10
T3 sequence (Q9HAW8 26-530): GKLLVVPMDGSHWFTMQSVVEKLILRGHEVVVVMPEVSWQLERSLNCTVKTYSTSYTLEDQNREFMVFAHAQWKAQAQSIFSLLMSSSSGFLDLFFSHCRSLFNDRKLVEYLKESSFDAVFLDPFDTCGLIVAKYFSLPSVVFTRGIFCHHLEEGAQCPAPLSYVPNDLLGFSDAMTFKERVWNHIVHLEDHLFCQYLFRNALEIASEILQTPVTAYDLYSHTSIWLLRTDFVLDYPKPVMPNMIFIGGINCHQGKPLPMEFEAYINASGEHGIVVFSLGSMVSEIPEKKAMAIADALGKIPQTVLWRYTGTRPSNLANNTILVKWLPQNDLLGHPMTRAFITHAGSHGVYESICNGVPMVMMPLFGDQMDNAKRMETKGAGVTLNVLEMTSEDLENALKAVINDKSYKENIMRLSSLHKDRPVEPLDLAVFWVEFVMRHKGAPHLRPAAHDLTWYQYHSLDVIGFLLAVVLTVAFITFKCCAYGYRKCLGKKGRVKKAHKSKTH

activity for glucuronidation of molidustat (UGT2B15): lacked measurable activity
activity for glucuronidation of molidustat (UGT2B17): lacked measurable activity
activity for glucuronidation of molidustat (UGT1A10): lacked measurable activity
SMILES: O=c1c(-n2ccnn2)c[nH]n1-c1cc(N2CCOCC2)ncn1 [Molidustat]

Reference: article PMC7983974 (Basic & Clinical Pharmacology & Toxicology, 2020)
